# From publication PMC7782793, “Hydroxamic acid-modified peptide microarrays for profiling isozyme-selective interactions and inhibition of histone deacetylases” (Nature Communications, 2021)
# Several values for one entry are separate records, joined by “and”; a condition that tells them apart may be missing. Equal entries are not always repeated. Marks after values point to notes of the source that are not given here. Non-standard residues stand in square brackets, D forms with d. Residues, ends and D or L forms follow the SMILES beside them. *: point of attachment. Asu = N[C@@H](CCCCCC(=O)O)C(=O)O; NHOH = ON*
# Assays:
# HDAC3/NCoR2 [1] = biological target: T1, HDAC3/NCoR2 (Homo sapiens, UniProt O15379); experiment: Recombinant HDAC µSPOT microarray binding assay;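 note: peptide spots on cellulose slides incubated with rising HDAC enzyme concentrations, imaged together, four-parameter logistic fit, EC50 is enzyme concentration giving half-maximal binding signal, two experiments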
# T1 construct: HDAC3/NCoR2 (full length, C-terminal His tag, NCoR2 N-terminal GST tag); purchased BPS Bioscience 50003
# T1 sequence (O15379 whole entry): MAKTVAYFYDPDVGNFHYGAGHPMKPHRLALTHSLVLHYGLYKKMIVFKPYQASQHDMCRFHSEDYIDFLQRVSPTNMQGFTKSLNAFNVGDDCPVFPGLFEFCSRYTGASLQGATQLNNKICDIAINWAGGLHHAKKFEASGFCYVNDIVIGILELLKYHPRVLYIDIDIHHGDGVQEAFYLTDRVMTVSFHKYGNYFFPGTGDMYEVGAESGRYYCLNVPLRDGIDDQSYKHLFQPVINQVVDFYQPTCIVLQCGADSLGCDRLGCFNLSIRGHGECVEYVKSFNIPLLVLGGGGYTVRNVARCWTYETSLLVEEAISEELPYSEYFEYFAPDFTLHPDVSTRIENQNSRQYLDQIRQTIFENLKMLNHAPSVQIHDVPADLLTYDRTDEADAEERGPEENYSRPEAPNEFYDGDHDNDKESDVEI
# T1 sequence (Q9Y618 389-480 partner limits assumed): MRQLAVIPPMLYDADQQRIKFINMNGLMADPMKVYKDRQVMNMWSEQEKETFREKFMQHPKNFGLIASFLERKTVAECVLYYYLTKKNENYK
# Procedure: (§1) Experiments were performed twice, data were obtained with Array Analyze software (Active Motif), and data analysis and representation were performed with the GraphPad Prism 7 software. Outliers were curated manually and data were fitted to nonlinear regression [log(agonist) vs. response—variable slope (four parameters)]. […] Non-sigmoidal curves were denoted as not determined (N.D.) The pEC50 values were determined as the concentration of HDAC enzyme required for half-maximal binding signal.
# HDACs 1‒3 and 8 = experiment: HDAC inhibition assays, statements across several class I isozymes; assay type: biochemical, human; conditions: resynthesized peptides, from Ki
# HDAC2 [2] = biological target: T2, HDAC2 (Homo sapiens, UniProt Q92769); experiment: HDAC inhibition assay (fluorogenic, Ac-Leu-Gly-Lys(Ac)-AMC); assay type: biochemical; conditions: for HDAC2 dose-response data (relative enzyme activity), Fig. 6 + S. Fig. 10: duplicate columns
# T2 construct: HDAC2 (full length, C-terminal His tag, BPS Bioscience, cat. #: 50002); purchased BPS Bioscience 50002
# T2 sequence (Q92769 whole entry): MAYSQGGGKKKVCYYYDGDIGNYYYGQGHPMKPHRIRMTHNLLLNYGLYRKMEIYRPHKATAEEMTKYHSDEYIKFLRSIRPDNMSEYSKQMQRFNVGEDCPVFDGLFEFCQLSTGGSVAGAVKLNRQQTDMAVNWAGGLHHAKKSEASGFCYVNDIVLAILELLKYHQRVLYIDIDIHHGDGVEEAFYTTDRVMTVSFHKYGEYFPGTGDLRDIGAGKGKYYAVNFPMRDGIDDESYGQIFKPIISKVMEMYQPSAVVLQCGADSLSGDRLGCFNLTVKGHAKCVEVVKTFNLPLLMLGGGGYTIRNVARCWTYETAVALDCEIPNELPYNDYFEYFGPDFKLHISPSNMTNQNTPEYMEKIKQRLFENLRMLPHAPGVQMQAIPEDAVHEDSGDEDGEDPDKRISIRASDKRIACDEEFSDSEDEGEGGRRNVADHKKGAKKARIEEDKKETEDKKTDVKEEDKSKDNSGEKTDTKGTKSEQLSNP
# HDAC3/NCoR2 [3] = biological target: T1, HDAC3/NCoR2; experiment: as above; assay type: biochemical; conditions: for HDAC3 dose-response data (relative enzyme activity), Fig. 6 + S. Fig. 10: duplicate columns
# HDAC1 [4] = biological target: T3, HDAC1 (Homo sapiens, UniProt Q13547); experiment: as above; assay type: biochemical; conditions: for HDAC1 dose-response data (relative enzyme activity), Fig. 6 + S. Fig. 10: duplicate columns
# T3 construct: HDAC1 (full length, C-terminal His tag, C-terminal FLAG tag, BPS Bioscience, cat. #: 50051); FLAG (C); purchased BPS Bioscience 50051
# T3 sequence (Q13547 whole entry): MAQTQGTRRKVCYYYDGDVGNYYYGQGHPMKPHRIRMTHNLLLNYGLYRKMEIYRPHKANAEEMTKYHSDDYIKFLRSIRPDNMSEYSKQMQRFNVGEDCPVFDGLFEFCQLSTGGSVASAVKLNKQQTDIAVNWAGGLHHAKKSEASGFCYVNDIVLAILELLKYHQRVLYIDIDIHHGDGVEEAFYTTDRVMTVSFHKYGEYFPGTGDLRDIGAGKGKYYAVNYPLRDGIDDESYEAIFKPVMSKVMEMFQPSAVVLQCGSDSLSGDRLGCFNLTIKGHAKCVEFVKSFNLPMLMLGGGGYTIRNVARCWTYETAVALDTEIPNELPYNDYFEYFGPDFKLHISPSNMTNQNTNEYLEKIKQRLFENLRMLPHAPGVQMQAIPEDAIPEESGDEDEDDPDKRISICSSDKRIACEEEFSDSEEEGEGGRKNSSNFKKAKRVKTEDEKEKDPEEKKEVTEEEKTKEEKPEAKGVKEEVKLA
# HDAC6 = biological target: T4, HDAC6 (Homo sapiens, UniProt Q9UBN7); experiment: as above; assay type: biochemical; conditions: HDAC6, replicates
# T4 construct: HDAC6 (full length, BPS Bioscience, cat. #: 50056); purchased BPS Bioscience 50056
# T4 sequence (Q9UBN7 1-1215): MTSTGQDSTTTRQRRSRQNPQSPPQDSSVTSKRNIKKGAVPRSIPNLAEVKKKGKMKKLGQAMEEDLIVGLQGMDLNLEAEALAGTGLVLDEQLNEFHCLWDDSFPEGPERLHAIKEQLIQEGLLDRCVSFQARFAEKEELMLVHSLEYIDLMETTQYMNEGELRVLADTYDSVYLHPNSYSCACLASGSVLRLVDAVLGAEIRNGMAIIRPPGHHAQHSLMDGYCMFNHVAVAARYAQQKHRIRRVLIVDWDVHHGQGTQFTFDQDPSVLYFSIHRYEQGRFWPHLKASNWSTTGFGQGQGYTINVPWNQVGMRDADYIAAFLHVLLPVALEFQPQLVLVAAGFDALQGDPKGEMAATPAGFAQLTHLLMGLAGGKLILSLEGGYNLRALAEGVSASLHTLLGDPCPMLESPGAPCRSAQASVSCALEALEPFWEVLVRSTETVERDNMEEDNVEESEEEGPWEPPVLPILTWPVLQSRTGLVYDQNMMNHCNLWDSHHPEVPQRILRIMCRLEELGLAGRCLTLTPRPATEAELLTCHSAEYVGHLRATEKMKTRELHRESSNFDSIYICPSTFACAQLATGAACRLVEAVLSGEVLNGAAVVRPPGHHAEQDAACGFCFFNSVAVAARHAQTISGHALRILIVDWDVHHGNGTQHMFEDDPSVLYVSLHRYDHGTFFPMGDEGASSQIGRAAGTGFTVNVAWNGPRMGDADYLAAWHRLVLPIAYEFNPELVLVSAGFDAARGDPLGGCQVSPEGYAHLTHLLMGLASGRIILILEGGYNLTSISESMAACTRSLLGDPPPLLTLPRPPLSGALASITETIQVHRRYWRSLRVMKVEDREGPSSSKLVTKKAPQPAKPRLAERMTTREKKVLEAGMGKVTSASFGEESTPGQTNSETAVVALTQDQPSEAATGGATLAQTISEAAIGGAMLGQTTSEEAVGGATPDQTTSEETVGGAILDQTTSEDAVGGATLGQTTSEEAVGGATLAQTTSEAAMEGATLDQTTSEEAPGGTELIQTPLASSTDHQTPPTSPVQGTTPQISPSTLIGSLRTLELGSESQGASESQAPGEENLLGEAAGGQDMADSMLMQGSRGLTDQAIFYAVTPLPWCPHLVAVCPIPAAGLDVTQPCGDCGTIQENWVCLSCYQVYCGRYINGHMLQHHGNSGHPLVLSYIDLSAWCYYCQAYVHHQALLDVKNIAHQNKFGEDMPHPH
# HDAC4 = biological target: T5, HDAC4 (Homo sapiens, UniProt P56524); experiment: HDAC inhibition assay (fluorogenic, Ac-Leu-Gly-Lys(Tfa)-AMC); assay type: biochemical; conditions: 2 internal replicates
# T5 construct: purchased BPS Bioscience 50004
# T5 sequence (P56524 627-1084): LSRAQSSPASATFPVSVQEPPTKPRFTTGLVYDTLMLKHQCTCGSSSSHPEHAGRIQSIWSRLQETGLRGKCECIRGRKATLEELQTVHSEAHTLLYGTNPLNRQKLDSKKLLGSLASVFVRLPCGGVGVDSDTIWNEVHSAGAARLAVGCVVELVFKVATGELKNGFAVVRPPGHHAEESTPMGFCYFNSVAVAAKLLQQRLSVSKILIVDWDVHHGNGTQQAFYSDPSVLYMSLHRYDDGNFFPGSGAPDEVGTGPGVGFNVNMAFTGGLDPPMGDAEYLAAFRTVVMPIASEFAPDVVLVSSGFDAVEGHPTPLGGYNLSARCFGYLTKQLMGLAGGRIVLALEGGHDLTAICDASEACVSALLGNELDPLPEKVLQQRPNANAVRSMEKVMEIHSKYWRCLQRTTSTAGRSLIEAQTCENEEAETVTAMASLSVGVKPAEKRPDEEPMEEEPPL
# HDAC1 [5] = biological target: T3, HDAC1; experiment: Recombinant HDAC µSPOT microarray binding assay
# Procedure: as §1
# HDAC2 [6] = biological target: T2, HDAC2; experiment: Recombinant HDAC µSPOT microarray binding assay
# HDAC8 = biological target: T6, HDAC8 (Homo sapiens, UniProt Q9BY41); experiment: Recombinant HDAC µSPOT microarray binding assay;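 note: peptide µSPOT slides incubated with varying HDAC enzyme concentrations, imaged signal intensity fitted by four-parameter variable-slope regression, EC50 is enzyme concentration giving half-maximal binding, pH 7.4 HEPES buffer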
# T6 construct: HDAC8 (full length, C-terminal His tag, BPS Bioscience, cat. #: 50008); purchased BPS Bioscience 50008
# T6 sequence (Q9BY41 1-377): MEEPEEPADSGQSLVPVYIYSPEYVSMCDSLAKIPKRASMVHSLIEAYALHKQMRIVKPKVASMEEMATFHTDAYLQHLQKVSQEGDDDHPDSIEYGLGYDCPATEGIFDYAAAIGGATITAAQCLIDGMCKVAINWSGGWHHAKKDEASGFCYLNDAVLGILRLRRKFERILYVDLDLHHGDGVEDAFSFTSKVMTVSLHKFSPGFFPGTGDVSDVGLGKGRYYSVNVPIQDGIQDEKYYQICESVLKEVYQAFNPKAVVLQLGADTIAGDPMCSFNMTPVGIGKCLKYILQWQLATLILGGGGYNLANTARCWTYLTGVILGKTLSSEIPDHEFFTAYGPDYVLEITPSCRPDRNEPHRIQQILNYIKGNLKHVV
# Procedure: as §1
# [7] = log[inhibitor(M)] -10,5850266520292*, whole line marked with asterisks
structure (smiles),measurement,setting,value
CC(=O)NCC(=O)NCC(=O)N[C@@H](CCCCCC(=O)NO)C(=O)N[C@@H](C)C(=O)N[C@@H](CCCNC(=N)N)C(=O)N[C@@H](C)C(=O)N[C@@H](CCCCN)C(=O)N[C@@H](C)C(=O)N[C@@H](CCCCN)C(=O)N[C@H](C(=O)N[C@@H](CCCNC(=N)N)C(=O)N[C@@H](CO)C(=O)N[C@@H](CO)C(=O)N[C@@H](CCCNC(=N)N)C(=O)N[C@@H](C)C(=O)NCC(=O)N[C@@H](Cc1c[nH]c2ccccc12)C(N)=O)[C@@H](C)O [9a] (Ac-GG[Asu](NHOH)ARAKAKTRSSRAGW-NH2),EC50,HDAC3/NCoR2 [1],6.03 nM
same,selectivity against HDACs 1‒3 versus HDAC8,HDACs 1‒3 and 8,over 100 fold
same,"HDAC2 dose-response data (relative enzyme activity), Fig. 6 + S. Fig. 10",HDAC2 [2]; log[inhibitor(M)] -5,5.281 and 8.057
same,"HDAC2 dose-response data (relative enzyme activity), Fig. 6 + S. Fig. 10",HDAC2 [2]; log[inhibitor(M)] -5.69897,15.9037 and 16.112
same,"HDAC2 dose-response data (relative enzyme activity), Fig. 6 + S. Fig. 10",HDAC2 [2]; log[inhibitor(M)] -7.79588,105.562 and 90.7957
same,"HDAC2 dose-response data (relative enzyme activity), Fig. 6 + S. Fig. 10",HDAC2 [2]; [7],"99,9428* and 99,2519*"
same,Ki,"HDAC2 [2]; resynthesized peptide in solution, Cheng-Prusoff, n = 2",48 ± 0.5 nM
same,Ki,HDAC3/NCoR2 [3],7.66 ± 0.07 nM
same,"HDAC3 dose-response data (relative enzyme activity), Fig. 6 + S. Fig. 10",HDAC3/NCoR2 [3]; log[inhibitor(M)] -4.30103,0.3821 and 0.6391
same,"HDAC3 dose-response data (relative enzyme activity), Fig. 6 + S. Fig. 10",HDAC3/NCoR2 [3]; log[inhibitor(M)] -5,2.293 and 2.409
same,"HDAC3 dose-response data (relative enzyme activity), Fig. 6 + S. Fig. 10",HDAC3/NCoR2 [3]; log[inhibitor(M)] -5.69897,8.406 and 7.571
same,"HDAC3 dose-response data (relative enzyme activity), Fig. 6 + S. Fig. 10",HDAC3/NCoR2 [3]; log[inhibitor(M)] -6.39794,24.6725 and 18.9774
same,"HDAC3 dose-response data (relative enzyme activity), Fig. 6 + S. Fig. 10",HDAC3/NCoR2 [3]; log[inhibitor(M)] -7.09691,37.2271 and 35.3982
same,"HDAC3 dose-response data (relative enzyme activity), Fig. 6 + S. Fig. 10",HDAC3/NCoR2 [3]; log[inhibitor(M)] -7.79588,64.8472 and 61.8977
same,"HDAC3 dose-response data (relative enzyme activity), Fig. 6 + S. Fig. 10",HDAC3/NCoR2 [3]; log[inhibitor(M)] -8.49485,94.5961 and 96.0669
same,"HDAC3 dose-response data (relative enzyme activity), Fig. 6 + S. Fig. 10",HDAC3/NCoR2 [3]; log[inhibitor(M)] -9.19382,98.4716 and 100.59
same,"HDAC3 dose-response data (relative enzyme activity), Fig. 6 + S. Fig. 10",HDAC3/NCoR2 [3]; log[inhibitor(M)] -9.89279,99.7271 and 104.621
same,"HDAC3 dose-response data (relative enzyme activity), Fig. 6 + S. Fig. 10",HDAC3/NCoR2 [3]; [7],"100,6* and 100,492*"
same,Ki,HDAC1 [4],31.1 ± 0.2 nM
same,"HDAC1 dose-response data (relative enzyme activity), Fig. 6 + S. Fig. 10",HDAC1 [4]; log[inhibitor(M)] -5.69897,7.627 and 13.3733
same,"HDAC1 dose-response data (relative enzyme activity), Fig. 6 + S. Fig. 10",HDAC1 [4]; log[inhibitor(M)] -6.39794,29.353 and 31.2435
same,"HDAC1 dose-response data (relative enzyme activity), Fig. 6 + S. Fig. 10",HDAC1 [4]; log[inhibitor(M)] -7.09691,58.5172 and 64.5613
same,"HDAC1 dose-response data (relative enzyme activity), Fig. 6 + S. Fig. 10",HDAC1 [4]; log[inhibitor(M)] -7.79588,95.7003 and 88.0669
same,"HDAC1 dose-response data (relative enzyme activity), Fig. 6 + S. Fig. 10",HDAC1 [4]; log[inhibitor(M)] -8.49485,105.543 and 108.963
same,"HDAC1 dose-response data (relative enzyme activity), Fig. 6 + S. Fig. 10",HDAC1 [4]; log[inhibitor(M)] -9.19382,98.3062 and 98.503
same,"HDAC1 dose-response data (relative enzyme activity), Fig. 6 + S. Fig. 10",HDAC1 [4]; log[inhibitor(M)] -9.89279,101.14 and 97.4578
same,"HDAC1 dose-response data (relative enzyme activity), Fig. 6 + S. Fig. 10",HDAC1 [4]; [7],"103,131* and 101,221*"
same,residual enzymatic activity relative to control wells,HDAC6; log[inhibitor(M)] -4.30103,0.99 and 1.47
same,residual enzymatic activity relative to control wells,HDAC6; log[inhibitor(M)] -5,0.54 and 1.15
same,residual enzymatic activity relative to control wells,HDAC6; log[inhibitor(M)] -5.69897,2.15 and 1.92
same,residual enzymatic activity relative to control wells,HDAC6; log[inhibitor(M)] -6.39794,7.05 and 5.56
same,residual enzymatic activity relative to control wells,HDAC6; log[inhibitor(M)] -7.09691,24.41 and 17.7
same,residual enzymatic activity relative to control wells,HDAC6; log[inhibitor(M)] -7.79588,54.41 and 42.53
same,residual enzymatic activity relative to control wells,HDAC6; log[inhibitor(M)] -8.49485,80.22 and 64.16
same,residual enzymatic activity relative to control wells,HDAC6; log[inhibitor(M)] -9.19382,93.97 and 80.87
same,residual enzymatic activity relative to control wells,HDAC6; log[inhibitor(M)] -9.89279,97.61 and 89.51
same,residual enzymatic activity relative to control wells,HDAC6; log[inhibitor(M)] -10.585,"98,6* and 92,44*"
same,residual enzymatic activity relative to control wells,HDAC4; inhibitor 5 µM,94.96
same,remaining activity at 5 µM,"HDAC4; inhibitor 5 µM, read-out: residual enzymatic activity relative to control wells",97.8%
same,residual enzymatic activity relative to control wells,HDAC4; inhibitor 50 µM,54.4
same,remaining activity at 50 µM,"HDAC4; inhibitor 50 µM, read-out: residual enzymatic activity relative to control wells",57.5%
same,EC50,HDAC1 [5],> 25.1 nM
same,EC50,HDAC2 [6],1.95 nM
same,EC50,HDAC8,> 25.1 nM
